TGI and GI50 data for 3 compounds are collected here from PubChem BioAssay (NCI).

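Growth conditions: 96-well plates. Treatment: test compound, 48 hours, 5 concentrations. Analysis: linear interpolation between bracketing concentrations; unreached endpoints set to highest concentration. At the GI50, growth is halved. TGI marks complete inhibition of growth.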

Test in all cases: NCI anticancer screen, dose series, 48 h
Assay [1] deals with A549 NSCLC.
Assay [2] concerns ACHN renal.
The test system of assay [3] is HCT-116 colon.
Assay [4] deals with IGROV1 ovarian.
Assay [5] concerns KM12 colon.
The subject of assay [6] is LOX IMVI melanoma.
In assay [7] the test system is MALME-3M melanoma.
The subject of assay [8] is MOLT-4 leukemia.
For assay [9], the system named is NCI-H23 lung.
The subject of assay [10] is OVCAR-5 ovarian.
For assay [11], the system named is SK-MEL-5 melanoma.
Assay [12] concerns U251 CNS.
In assay [13] the test system is UO-31 renal.

Turning to `COc1cccc(/C=N/[N-]C(N)=O)c1[O-].[Ni+2].[OH3+].c1ccc(-c2ccccn2)nc1`, the TGI in assay [1], in assay [2], in assay [3], in [4], in assay [5] and in assay [6] was over 100 µM in each case. In addition, the TGI in assay [7], in assay [8], in [9], in assay [10], in assay [11] and in assay [12] was over 100 µM each time. Besides, the TGI in assay [13] is over 100 µM.

In the case of `O=C(N/N=C/c1cc(Cl)cc(Cl)c1[O-])c1ccccc1O.O=C(N/N=C/c1cc(Cl)cc(Cl)c1[O-])c1ccccc1O.[Zn+2]`, the GI50 is 0.527 µM in [1]; 0.337 µM in [3]; 0.956 µM in assay [5]; 1.37 µM in assay [7]; 0.0115 µM in assay [8]; 0.56 µM in assay [9]. In addition, the TGI is 13.1 µM in [1]; 12.9 µM in assay [2]; 14.5 µM in [3]; 6.82 µM in [4]; 17.9 µM in assay [5]; 14.6 µM in assay [6]. For the same compound, the TGI worked out at 8.56 µM in assay [7]; 18 µM in [8]; 11.2 µM in assay [9]; 14.6 µM in assay [10]; 2.94 µM in assay [11]; 5.93 µM in [12]. This compound also displayed a TGI in assay [13] of 10.6 µM.

Consider `OC1CCOc2ccccc21` (stereo not given), for which the TGI in [1], in assay [2], in assay [3], in assay [4], in assay [5] and in assay [6] was over 100 µM throughout. The TGI in [7], in [8], in assay [9], in assay [10], in [11] and in [12] was over 100 µM each time. Further, the TGI in assay [13] is over 100 µM.
